Measured values published in patent US20050148495A1, “Methods and materials including for treating acne” (priority 2003, published 2005).
≈ marks a conversion by molar mass, not a printed value. Like-named read-outs stand apart in the source and are kept apart here. Non-standard residues stand in square brackets, D forms with d. Residues, ends and D or L forms follow the SMILES beside them. d1Nal = N[C@H](Cc1cccc2ccccc12)C(=O)O

What was measured:
[1] = test system: albino hairless guinea pigs Crl:IAF(HA)-hrBR (Outbred); assay: Photosafety study: primary irritancy, phototoxicity, contact hypersensitivity, photoallergy; assay type: in vivo, guinea pig; details: single topical administration and UVR; XMP.629 up to 10 mg/mL (1.0%)
Method: XMP.629 was evaluated for photoallergic potential administered topically to hairless guinea pigs. Primary irritancy, phototoxicity (photoirritancy) and contact hypersensitivity were also evaluated in these studies.
Male CrI:IaF(HA)-hrBR (Outbred) albino hairless guinea pigs were assigned to 7 groups, five guinea pigs per group as outlined below.
XMP.629 was formulated as a gel. The phototoxicity comparator article was 8-methoxypsoralen (8-MOP) in methanol at concentrations of 0.1, 0.3 and 1.0 mg/mL. The contact hypersensitivity and photoallergy comparator article was 3,3′,4′,5′-tetrachlorosalicy/anilide (TCSA) in acetone:corn oil (4:1, v/v) at challenge concentrations of 0 (Vehicle), 10, and 30 mg/mL. The reagent and reagent vehicle were Freund's complete adjuvant (FCA) and sterile water for injection, USP, respectively.
The formulation administration and ultraviolet radiation (UVR) exposure regimens for each group in the study were as follows.
For all phases of the study, test articles, test article vehicles, comparator articles and comparator article vehicles were administered (0.3 ml) using a Hilltop chamber affixed to the guinea pig with dental dam overlaid with a Velcro® wrap for approximately 2.0 hours per administration.
Primary irritancy potential of the test articles and test article vehicles was evaluated in Group 1 guinea pigs. Three chambers (one per formulation dosage) were attached to the dorsal skin along the midline. After the administration period the chamber patches were removed and the application sites were gently wiped.
Cutaneous phototoxicity potential of the test articles and test article vehicles was evaluated in Group 2 guinea pigs. Group 3 guinea pigs were used as a comparator group with elicitation of phototoxicity with 8-MOP. Three chambers (one per formulation dosage) were attached to the dorsal skin along the midline and occluded. After the administration period the chamber patches were removed and the application sites were gently wiped. After wiping, Group 2 and 3 guinea pigs were exposed to solar-simulated UVR for approximately 2.25 hours.
For induction of contact hypersensitivity and photoallergy, a nuchal area of skin approximately 2.5 cm^2 was defined by intradermal injections with a formulation of sterile water and FCA in guinea pigs in Groups 4 through 7 under isoflurane/oxygen anesthesia. This skin area was then tape stripped five times. Formulations were topically administered via chambers as described in the study design table using one chamber attached to the nuchal area. After removal of the chambers the application sites were gently wiped and the nuchal site of Group 6 and 7 guinea pigs was exposed to UVR as above. Appropriate procedures for guinea pigs (with the exception of injection with FCA) were repeated once daily on Days 3, 5, 8, 10 and 12 of the induction phase.
On Day 22 (contact hypersensitivity and photoallergy challenge), formulations were topically applied to appropriate sites on guinea pigs in Groups 4 through 7 as described above. Three chambers (one per formulation dosage) were attached to the dorsal skin along the midline and occluded. The chambers were then removed and the application sites were gently wiped. Guinea pigs in Groups 6 and 7 were then exposed to UVR as above.
Observations for general appearance and clinical signs were made weekly throughout the study. […] Body weights were recorded at initiation of dosing for each phase, weekly thereafter and at sacrifice. […]

E. coli = details: for MBC: agent alone
Staphylococcus aureus = details: for MBC: agent alone
P. acnes [2] = details: strains UPC686 and UP2022; with XMP.629
P. acnes [3] = assay: microbe, parasite or virus in culture; details: Cutibacterium acnes, clindamycin/erythromycin sensitive strain UP2022
[4] = test system: P. acnes strain (ATCC 6919); details: P. acnes ATCC 6919 passaged in the drug; level of the resistant culture sought/obtained
P. acnes [5] = assay: microbe, parasite or virus in culture; details: Cutibacterium acnes
Method: An in vitro assessment of antibiotic activity in XMP.629 and various known antibiotics against a representative panel of bacterial strains associated with acne was conducted. A broth dilution methodology was employed using guidelines established by National Committee for Clinical Laboratory Standards (NCCLS) for anaerobic organisms to establish an antibacterial profile for XMP.629. Assays to determine the minimal bactericidal concentrations (MBC) and minimal inhibitory concentration (MIC) were conducted for XMP.629 and other known antibiotics.
Inoculum from a representative panel of bacterial strains associated with acne, such as P. acnes, P. avidum, P. granulosum, and Staphylococcus epidermis was prepared by suspending approximately 5-10 isolated bacterial colonies in pre-reduced MicroScan® Inoculum Water (Dade Behring, Deerfield, Ill.), and growing the bacterial suspension to log phase (approximately 48 hrs). An inoculum of between 1-5×10^6/mL was achieved by adding 100 μL of the suspension to 25 mL Brain Heart Infusion Broth (BHI) (Anaerobe Systems, Morgan Hill, Calif.).
A stock solution of XMP.629 dissolved in water at a concentration of 4.0 mg/mL was prepared. Dilute solutions of XMP.629 at concentrations ranging from about 1.25 to about 160 μg/mL were made in either water or formulation buffer (130 mM sodium chloride, 0.2% P103 (poloxamer 333), and 0.10% EDTA, pH 7.3).
Control tubes containing only water or formulation buffer were prepared for each isolate. Initial growth controls were determined by removing 10 μL from the water control tube and diluting it by 100 fold. From this dilution, 10 μL was used for inoculation and for spreading over the surface onto Laked Blood Agar (LBA) (Anaerobe Systems, Morgan Hill, Calif.) plates. The tubes and plates were incubated in an anaerobic atmosphere at 37° C. for 48 h.

Klebsiella pneumoniae = assay: microbe, parasite or virus in culture; assay type: cell-based; details: Klebsiella pneumoniae, read-out: Minimum Inhibitory Concentrations
Method: (§1) Acne vulgaris may involve a microbial consortium. Although P. acnes may be a prominent member of such a consortium, other uncharacterized bacteria may also participate. The microbial activity of XMP.629 as an acetate gel as described in Example 5 and other commonly used antibiotics was evaluated against a panel of human pathogens using standardized NCCLS protocols. […] Lesser potency was observed against the gram-negative organisms B. fragilis, B. cepacia, P. mirabilis and S. marcescens, which are often refractory to many antimicrobial compounds.

Escherichia coli = assay: microbe, parasite or virus in culture; assay type: cell-based; details: Escherichia coli, Escherichia coli 0111:B4; read-out: Minimum Inhibitory Concentrations
Method: as §1

Serratia marcescens = assay: microbe, parasite or virus in culture; assay type: cell-based; details: Serratia marcescens 13880; read-out: Minimum Inhibitory Concentrations
Method: as §1

Proteus mirabilis = assay: microbe, parasite or virus in culture; assay type: cell-based; details: Proteus mirabilis 29852; read-out: Minimum Inhibitory Concentrations
Method: as §1

Pseudomonas aeruginosa = assay: microbe, parasite or virus in culture; details: read-out: Minimum Inhibitory Concentrations, Pseudomonas aeruginosa 27853
S. aureus = assay: Comparison of XMP.629 with standard topical agents (MIC90/MBC); assay type: cell-based, Staphylococcus aureus; details: Staphylococcus aureus
Method: Control tubes containing only water or formulation buffer were prepared for each isolate. Initial growth controls were determined by removing 10 μL from the water control tube and diluting it by 100 fold. From this dilution, 10 μL was used for inoculation and for spreading over the surface onto Laked Blood Agar (LBA) (Anaerobe Systems, Morgan Hill, Calif.) plates. The tubes and plates were incubated in an anaerobic atmosphere at 37° C. for 48 h. […] MBC50 and 90 values represent where 50 and 90%, respectively, of the tested strain's MBC values are equal to or less than the indicated concentration.

hemizygous Tg.AC mice = assay: Mouse dermal carcinogenicity study (TPA in XMP.629 acetate gel placebo); assay type: in vivo
Method: XMP.629 was evaluated in a dermal carcinogenicity study to determine whether repeated dermal treatment with tetradeconyl phorbol acetate (TPA) in a XMP.629 acetate gel placebo formulation increased the incidence of skin tumors in hemizygous Tg.AC mice. […] Group 1 was treated with XMP.629 acetate gel placebo alone. A sixth group (Group 2) was treated with TPA dissolved in acetone at a dose level of 1.25 μg per 150 μL application and served as a reference standard. The animals were dosed via dermal application three times per week (e.g., Monday, Wednesday and Friday) for 12 consecutive weeks.
All animals were observed twice daily for moribundity and mortality. A hands-on examination was performed weekly at the time the animals were weighed on Day 1 and weekly thereafter. At that time, the animals were examined for clinical evidence of toxicity, carcinogenicity, and/or irritation at the site of application. […] The number of tumors at the site of application (SOA) and non-site of application (non-SOA) was recorded for each animal each week. At the end of the study (Day 85), the surviving animals were euthanized with CO2 asphyxiation. A necropsy was not performed.

in vivo = details: both, rat, plasma, po, 10 mg/kg, Bioavailability, 10 mg/kg oral gavage in distilled water
[6] = 10 mg/kg oral gavage
[7] = rat, 0.3 mg/kg intravenous
Method: Whole body autoradiography studies measured the concentration of tritium in tissues at several time points following dosing. From these concentrations, area under the concentration vs. time curve (AUC) was calculated as a measure of overall exposure (see Table 25).

[8] = 0.3 mg/kg intravenous

Method for physchem: In additional studies, a variety of formulations of XMP.629 were tested for stability under various temperatures, such as 25° C., 40° C., and 50° C., and at various time points, such as 0.5, 1, and 2 months.
The solubility of XMP.629 acetate in various solvents was also evaluated.
Solubility studies were conducted using a variety of solvent systems and/or skin penetration enhancers.

Compound: COc1c2occc2cc2ccc(=O)oc12 [8-MOP, 8-methoxypsoralen, reference compound]
- phototoxicity [1]: produced skin reactions indicative of cutaneous phototoxicity

Compound: CC1(C)S[C@@H]2[C@H](NC(=O)[C@H](N)c3ccccc3)C(=O)N2[C@H]1C(=O)O [Ampicillin]
- MBC (antibiotic alone) (E. coli; E. coli 4104 LF): 32 µg/mL (≈ 91.6 µM)
- MBC (antibiotic alone) (Staphylococcus aureus; Staphylococcus aureus 342U-116): 8 µg/mL (≈ 22.9 µM)

Compound: CO/N=C(\C(=O)N[C@@H]1C(=O)N2C(C(=O)O)=C(COC(N)=O)CS[C@H]12)c1ccco1 [Cefuroxime]
- MBC (antibiotic alone) (E. coli; E. coli 4104 LF): 8 µg/mL (≈ 18.9 µM)

Compound: CC(=O)OCC1=C(C(=O)O)N2C(=O)[C@@H](NC(=O)Cc3cccs3)[C@H]2SC1 [Cephalothin]
- MBC (antibiotic alone) (Staphylococcus aureus; Staphylococcus aureus 342U-116): 1 µg/mL (≈ 2.52 µM)

Compound: CCC[C@@H]1C[C@@H](C(=O)N[C@@H]([C@H]2O[C@H](SC)[C@H](O)[C@@H](O)[C@H]2O)[C@H](C)Cl)N(C)C1 [Clindamycin]
- FIC (P. acnes [2]): 2
- MIC (P. acnes [3]): < 1 µg/mL
- MIC/MBC [4]: >64 µg/mL
- MIC90 (P. acnes [5]; read-out: MIC90 of Standard Topical Agents): 16 µg/mL (≈ 37.6 µM)
- MIC (P. acnes [5]; read-out: MIC of clindamycin resistant strains): > 64 µg/mL

Compound: C[C@H]1c2cccc(O)c2C(=O)C2=C(O)[C@]3(O)C(=O)C(C(N)=O)=C(O)[C@@H](N(C)C)[C@@H]3[C@@H](O)[C@@H]21 [Doxycycline]
- MIC (Klebsiella pneumoniae; Klebsiella pneumoniae 19645): 32 µg/mL (≈ 72 µM)
- MIC (Klebsiella pneumoniae; Klebsiella pneumoniae 29011): 32 µg/mL (≈ 72 µM)
- MIC (Escherichia coli): 2 µg/mL (≈ 4.5 µM)
- MIC (Serratia marcescens): 8 µg/mL (≈ 18 µM)
- MIC (Proteus mirabilis): 64 µg/mL (≈ 144 µM)
- MIC (Pseudomonas aeruginosa): 32 µg/mL (≈ 72 µM)

Compound: C/C(=C\C(=O)OCCCCCCCCC(=O)O)C[C@@H]1OC[C@H](C[C@@H]2O[C@H]2[C@@H](C)[C@H](C)O)[C@@H](O)[C@H]1O [Mupirocin]
- MIC90 (S. aureus): 4 µg/mL (≈ 7.99 µM)

Compound: CC1COc2c(N3CCN(C)CC3)c(F)cc3c(=O)c(C(=O)O)cn1c23 (stereo not drawn) [Ofloxacin]
- MBC (antibiotic alone) (E. coli; E. coli 4104 LF): ≦0.125 μg/mL
- MBC (antibiotic alone) (Staphylococcus aureus; Staphylococcus aureus 342U-116): 1 µg/mL (≈ 2.77 µM)

Compound: CCCCCCCCCCCCCC(=O)O[C@@H]1[C@@H](C)[C@@]2(O)[C@@H](C=C(CO)C[C@]3(O)C(=O)C(C)=C[C@@H]23)[C@@H]2C(C)(C)[C@]12OC(C)=O [TPA, tetradeconyl phorbol acetate]
- tumor development (hemizygous Tg.AC mice; 10 μg TPA per application, a single female): one latent and one actual papilloma
- tumor development, females (hemizygous Tg.AC mice; 20 μg TPA per application): 4/4
- tumor development, males (hemizygous Tg.AC mice; 20 μg TPA per application): 2/5
- tumor development (hemizygous Tg.AC mice; 2.5 and 5.0 μg per application in XMP.629 acetate gel placebo): did not result in tumor development

Compound: CC(C)C[C@@H](NC(=O)[C@H](N)CCCCN)C(=O)N[C@H](Cc1ccccc1)C(=O)N[C@H](CCCNC(=N)N)C(=O)N[C@H](Cc1cccc2ccccc12)C(=O)N[C@H](CCC(N)=O)C(=O)N[C@H](C)C(=O)N[C@H](CCCCN)C(=O)N[C@H](Cc1cccc2ccccc12)C(N)=O [XMP.629 acetate] (H-[dK][dL][dF][dR][d1Nal][dQ][dA][dK][d1Nal]-NH2)
- solubility (physchem; ethanol, 200 proof): < 2200 µg/mL
- solubility (physchem; propylene glycol): 10600 to 12500 µg/mL
- solubility (physchem; purified water): < 1660 µg/mL
- solubility (physchem; sodium acetate buffer, pH 6): > 1640 µg/mL
- solubility (physchem; transcutol P): < 170 µg/mL
- bioavailability (in vivo): ~0.001%
- Bioavailability, 5% glucose formulation versus distilled water [6]: ~4 fold
- peak concentrations, 5% glucose formulation versus distilled water [6]: ~4 fold
- time of peak concentrations following dosing [6]: 10 to 20 min

Compound: CC(C)C[C@@H](NC(=O)[C@H](N)CCCCN)C(=O)N[C@H](Cc1ccccc1)C(=O)N[C@H](CCCNC(=N)N)C(=O)N[C@H](Cc1cccc2ccccc12)C(=O)N[C@H](CCC(N)=O)C(=O)N[C@H](C)C(=O)N[C@H](CCCCN)C(=O)N[C@H](Cc1cccc2ccccc12)C(N)=O [[^3H]-labeled XMP.629] (H-[dK][dL][dF][dR][d1Nal][dQ][dA][dK][d1Nal]-NH2)
- AUC0-tlast ([7]; Adrenal): 64.98 μg equivalents * hr/g
- AUC0-tlast ([7]; Blood): 0.24 μg equivalents * hr/g
- AUC0-tlast ([7]; Bone marrow): 82.65 μg equivalents * hr/g
- AUC0-tlast ([7]; Cervical lymph node): 86.07 μg equivalents * hr/g
- AUC0-tlast ([7]; Eye uveal tract): 1.14 μg equivalents * hr/g
- AUC0-tlast ([7]; Kidney): 20.20 μg equivalents * hr/g
- AUC0-tlast ([7]; Liver): 191.86 μg equivalents * hr/g
- AUC0-tlast ([7]; Lung): 29.25 μg equivalents * hr/g
- AUC0-tlast ([7]; Popliteal lymph node): 165.30 μg equivalents * hr/g
- AUC0-tlast ([7]; Renal medulla high): 19.83 μg equivalents * hr/g
- AUC0-tlast ([7]; Spleen): 60.94 μg equivalents * hr/g
- AUC0-tlast ([7]; Thyroid): 23.38 μg equivalents * hr/g
- Central compartment volume of distribution [8]: ~0.12 L/kg
- alpha half-life [8]: ~2 min
- beta half-life [8]: ~45 min
- clearance [8]: ~6 mL/min/kg
- plasma concentrations by 24 hours following dosing [8]: approximately 0.005 μg/mL
- terminal half-life [8]: ~480 min
- average half-life ([8]; three compartment model): approximately 0.24 hours

Compound: Neomycin
- MBC (antibiotic alone) (E. coli; E. coli 4104 LF): 1 µg/mL
- MBC (antibiotic alone) (Staphylococcus aureus; Staphylococcus aureus 342U-116): 1 µg/mL

Compound: Penicillin
- MBC (E. coli; E. coli 706U2-1081): >10 µg/mL
- MBC (E. coli; E. coli 4104 LF): >10 µg/mL
- MBC (Staphylococcus aureus; Staphylococcus aureus 076U-550): <0.06 µg/mL
- MBC (Staphylococcus aureus; Staphylococcus aureus 230U-579): >10 µg/mL
- MBC (Staphylococcus aureus; Staphylococcus aureus 314U-148): >10 µg/mL
- MBC (Staphylococcus aureus; Staphylococcus aureus 342U-116): >10 µg/mL
- MBC (Staphylococcus aureus; Staphylococcus aureus 15031-1857): >10 µg/mL
